Experimental data from BindingDB's records for doi:10.1016/j.bmc.2007.10.061 (Osi Pharmaceuticals, 2008).

Columns and labels:
[1] = target: Mitogen-activated protein kinase 1 (ERK2) (Homo sapiens) (UniProt P28482); experiment: Inhibition of MAPK2
[2] = target: 3-phosphoinositide-dependent protein kinase 1 (PDPK1) (Homo sapiens) (UniProt O15530); experiment: Inhibition of PDK1

Mitogen-activated protein kinase 1 (ERK2) (Homo sapiens), sequence (P28482 whole entry, looked up): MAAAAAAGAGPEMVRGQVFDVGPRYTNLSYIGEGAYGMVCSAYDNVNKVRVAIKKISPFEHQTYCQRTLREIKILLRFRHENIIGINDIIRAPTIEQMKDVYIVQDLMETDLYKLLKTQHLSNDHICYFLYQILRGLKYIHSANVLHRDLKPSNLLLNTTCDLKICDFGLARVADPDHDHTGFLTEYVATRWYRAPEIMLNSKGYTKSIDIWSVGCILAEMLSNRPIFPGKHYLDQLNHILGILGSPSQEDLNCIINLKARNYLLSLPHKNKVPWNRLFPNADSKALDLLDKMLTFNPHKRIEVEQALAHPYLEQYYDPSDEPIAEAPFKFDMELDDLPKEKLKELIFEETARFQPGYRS

IC50 [1]: > 10 µM
IC50 [2]: > 30 µM
SMILES: Nc1nccn2c1c(-c1ccc3ccc(-c4ccccc4)nc3c1)nc2[C@H]1C[C@@H](CN2CCC2)C1 [cis-3-(3-(azetidin-1-ylmethyl)cyclobutyl)-1-(2-phenylquinolin-7-yl)imidazo[1,5-a]pyrazin-8-amine]
